This note sets out measurements from publication PMC12643354, “From Oxygen to Tellurium: The Impact of the Chalcogen on Nucleophilicities and Basicities of Isochalcogenourea Catalysts” (Angewandte Chemie (International Ed. in English), 2025).

Data set [1] can be described thus: Kinetics of IChU reactions with reference electrophile (lil)2CH+ (stopped-flow photometry). It counts as physicochemical. The conditions noted are these: E = −10.04, dichloromethane, 20 °C. From the text:
(§1) In order to systematically investigate the influence of the chalcogen atom on the nucleophilicity of DHPB‐derived IChUs (Ch = O, S, Se, and Te), we utilized Mayr's benzhydrylium methodology.^[ [107] ^]
(§2) In accordance with observations in previous studies on ITU reactivity,^[ [119] ^] mixing the strongly colored benzhydrylium tetrafluoroborates 18 with excess IChUs in dichloromethane gave rise to decolorization of the solutions due to the formation of isochalcogenouronium tetrafluoroborates 19, which are colourless (Figure 3a). […] To establish pseudo first‐order conditions and to secure a sufficient decay of the benzhydrylium's absorbance during the course of the reactions, the IChUs were employed at higher concentrations than the benzhydrylium ions. First‐order rate constants k obs (s^−1) were determined by fitting the mono‐exponential decay function in Equation (2) to the decreasing absorbance (A) of 18 during their reaction with the IChUs as exemplified for the reaction of ITeU3 with (ind)2CH^+ in Figure 3b. […]
(§3) First‐order rate constants k obs correlated linearly with the IChU concentration. Therefore, second‐order rate constants k 2 (L mol^−1 s^−1) were determined from the slope of the linear regression curves (Figure 3c ^[ [95] ^]). […]

The nature of data set [2]: Kinetics of IChU reactions with reference electrophile (thq)2CH+ (stopped-flow photometry). The format is physicochemical. The conditions noted are these: E = −8.22, dichloromethane, 20 °C.
From the text: as §1, §2, §3

Data set [3] is described as follows: Brønsted basicity pKaH by chemical shift imaging NMR method in DMSO and MeCN. To be noted: for Brønsted basicity pKaH(DMSO): in DMSO; for Brønsted basicity pKaH(MeCN): in MeCN. How it is done: Recently, Wiskur's group reported potentiometrically determined pK aH values (that is, the pK a of the conjugate acids) of achiral ITUs based on the BTM and DHPB scaffolds in aqueous media.^[ [89], [128] ^] […] In this work, we applied this NMR spectroscopic method to determine the pK aH values of further IChUs in DMSO and MeCN (Supporting Information).
First, a stock solution containing the analyte, two basic indicators and tetramethyl silane was prepared with the respective solvent (DMSO or acetonitrile).
Then 5-10 mg of acid were weighed into a NMR tube and subsequently covered with glass beads.
Figure S50: 5-10 mg of acid in Figure S51: Cover with 1 mm
Afterwards, 550 μL of the stock solution was layered carefully over the glass beads and the acid. The sample is then put in a 28 °C water bath (for DMSO) for 20 - 24h or left on the bench at 22 °C (for acetonitrile) for 1.5 - 2 h and then the NMR measurement was carried out at 20 °C.
Figure S52: Overlay the acid with the Figure S54: Visualized gradient after stock solution of two indicators and the 18h in DMSO (with Bromthymolblue) […]
Figure S53: Development of gradients in temperated water S145 […]
13.4 Indicator and Acid Data
Table S67: Limiting shifts (δH for the fully protonated and δL for the free base), pKas and abbreviations of indicators and acids in acetonitrile.
Table S68: Limiting shifts (δH for the fully protonated and δL for the free base), pKas and abbreviations of indicators

Data set [4] in a line: Kinetics of IChU reactions with reference electrophile (mor)2CH+ (stopped-flow photometry). To be noted: E = −5.53, dichloromethane, 20 °C. It counts as physicochemical.
From the text: as §1, §2, §3

Data set [5] in a line: Kinetics of IChU reactions with reference electrophile (dpa)2CH+ (stopped-flow photometry). It counts as physicochemical. To be noted: E = −4.72, dichloromethane, 20 °C.
From the text: as §1, §2, §3

As to `c1ccc2c(c1)[Se]C1=NCCCN12` [ISeU3, SeDHPB], the “Second-order rate constant k2 exptl” value in data set [1] stood at 1980 M⁻¹ s⁻¹. Moreover, the “Second-order rate constant k2 exptl” value in data set [2] came out at 38100 M⁻¹ s⁻¹. Also, in data set [3], the “Brønsted basicity pKaH(DMSO)” value came to 8.3 and the “Brønsted basicity pKaH(MeCN)” value is reported as 17.9.
On to `c1ccc2c(c1)OC1=NCCCN12` [IU3, ODHPB], for which the “Second-order rate constant k2 exptl” value in data set [4] worked out at 185000 M⁻¹ s⁻¹. Further, in data set [5], the “Second-order rate constant k2 exptl” value was determined as 896000 M⁻¹ s⁻¹. Moreover, in data set [3], the “Brønsted basicity pKaH(DMSO)” value is reported as 6.5 and the “Brønsted basicity pKaH(MeCN)” value turned out to be 16.9.
